Laboratory results published in publication PMC3328449, “Inhibition of Diacylglycerol–Sensitive TRPC Channels by Synthetic and Natural Steroids” (PLoS ONE, 2012).
“And” between values parts separate entries of the source, which are not always exact repeats. Identical values can stand only once.

Molecular target: T1, hTRPC6 (Homo sapiens, UniProt Q9Y210)
T1 construct: expressed in transfected cells
T1 sequence (Q9Y210 1-931): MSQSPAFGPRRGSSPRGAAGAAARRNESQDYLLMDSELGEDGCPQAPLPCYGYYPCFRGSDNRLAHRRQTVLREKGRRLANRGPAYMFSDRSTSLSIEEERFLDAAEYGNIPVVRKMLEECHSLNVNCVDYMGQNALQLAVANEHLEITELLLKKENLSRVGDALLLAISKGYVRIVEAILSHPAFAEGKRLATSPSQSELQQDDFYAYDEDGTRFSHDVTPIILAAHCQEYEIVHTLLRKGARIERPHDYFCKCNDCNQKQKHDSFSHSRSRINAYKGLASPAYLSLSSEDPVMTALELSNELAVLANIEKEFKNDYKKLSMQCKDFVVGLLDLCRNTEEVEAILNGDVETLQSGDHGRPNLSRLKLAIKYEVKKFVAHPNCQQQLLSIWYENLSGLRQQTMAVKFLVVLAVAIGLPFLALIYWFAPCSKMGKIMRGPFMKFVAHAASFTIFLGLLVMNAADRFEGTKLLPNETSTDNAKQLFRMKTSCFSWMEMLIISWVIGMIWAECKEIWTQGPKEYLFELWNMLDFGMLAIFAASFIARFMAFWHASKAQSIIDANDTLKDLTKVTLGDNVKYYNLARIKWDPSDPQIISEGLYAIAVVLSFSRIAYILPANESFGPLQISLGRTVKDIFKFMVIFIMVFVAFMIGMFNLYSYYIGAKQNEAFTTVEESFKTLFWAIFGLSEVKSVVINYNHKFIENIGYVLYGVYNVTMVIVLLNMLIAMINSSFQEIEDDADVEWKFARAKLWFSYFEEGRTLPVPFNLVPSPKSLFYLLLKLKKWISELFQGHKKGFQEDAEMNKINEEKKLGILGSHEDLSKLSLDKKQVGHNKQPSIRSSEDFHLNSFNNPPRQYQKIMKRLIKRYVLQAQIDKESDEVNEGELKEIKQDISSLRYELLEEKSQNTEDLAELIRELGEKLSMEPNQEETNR
Test: OAG-induced Ca2+ entry, fluo-4 fluorometric imaging plate reader, TRPC6 HEK-FITR cells
Format: cell-based
Settings: for IC50: TRPC6 HEK-FITR cells, fluo-4, area under the curve, 10 min pre-incubation, read-out: IC50, inhibition of OAG-induced Ca2+ entry via TRPC6; for Hill slope n, inhibition of TRPC6-mediated Ca2+ entry: fit to Hill model
Protocol: Cells were grown at 37°C in a humidified atmosphere (5% or 7% CO2) under standard cell culture conditions. Stable human embryonic kidney (HEK) cell lines expressing recombinant mTRPC4ß (GenBank accession number AAC05178); mTRPC5 (GenBank accession number NM_009428) or hTRPC6 (GenBank accession number AF080394) under the control of a tetracycline-inducible promoter were generated using the Flp-In T-Rex (FITR) system (Invitrogen, Karlsruhe, Germany). TRPC4/5/6 HEK-FITR cells were maintained in Dulbecco's modified eagle medium (DMEM, with glutaMAX I, 4.5 g/l glucose and […] sodium pyruvate) supplemented with 10% (v/v) fetal bovine serum (Biochrom, Berlin, Germany), 1 mM glutamine, 1 mM MEM sodium pyruvate, 40 μg/ml hygromycin (50 μg/ml for mTRPC5 HEK-FITR cells), and 15 μg/ml blasticidine HCl. Channel expression was induced by supplementing the growth medium for 18-24 h with 1 μg/ml doxycycline. Cells grown to an almost confluent monolayer on black poly-D-lysine coated 96-well plates (Greiner, Frickenhausen, Germany) were washed with standard extracellular solution (140 mM NaCl, 1 mM MgCl2, 5.4 mM KCl, 2 mM CaCl2, 10 mM HEPES, 10 mM glucose, pH 7.35) and stained (30 min, room temperature) with dye solution (2 μM fluo-4 AM, 0.02% pluronic F127, 0.1% bovine serum albumin in standard extracellular solution). Cells were washed and either incubated with standard extracellular solution only or with different concentrations of test compounds for 10 min. Fluo-4 fluorescence was excited at 488 nm with an argon laser and measured using a fluorometric imaging plate reader (Molecular Devices, Sunnyvale, USA). All fluorometric measurements were performed at room temperature. […] Baseline fluorescence in non-OAG-stimulated cells and OAG-stimulated Ca^2+ influx into control cells not treated with inhibitors were defined as 0% and 100% influx, respectively. For statistical analysis, analysis of variance was performed with Origin 6.0 software (Microcal Software Inc., Northampton, USA). […] Averaged data is expressed as means ± SEM.

## C#C[C@]1(OC(C)=O)CC[C@H]2[C@@H]3CCC4=CC(=NO)CC[C@@H]4[C@H]3CC[C@@]21CC (mixture of isomers) [norgestimate]
30 µM pre-incubation, OAG-induced
  Effect on TRPC6-mediated Ca2+ entry: significantly reduced
  IC50: 3 to 5 µM and 5.2 µM
  Hill slope n, inhibition of TRPC6-mediated Ca2+ entry: 0.97

## CC(=O)[C@H]1CC[C@H]2[C@@H]3CCC4=CC(=O)CC[C@]4(C)[C@H]3CC[C@]12C [progesterone]
  IC50: 18 µM
  Hill slope n, inhibition of TRPC6-mediated Ca2+ entry: 1.2
